Data reported in patent US8563742B2, “Substituted aminothiazole derivatives, pharmaceutical compositions, and methods of use” (High Point Pharmaceuticals, LLC, priority 2008, dated 2013).

How the values were obtained:
human MC-4R = molecular target: T1, human MC-4R (Homo sapiens, UniProt P32245); assay: Biological Assay: inhibition of AgRP functional interaction with MC-4R in presence of αMSH (cAMP production); type: cell-based; conditions: HEK293 cells expressing human MC-4R, AgRP83-132 and αMSH present; read-out: Average EC50 (nM) in Biological Assay
T1 construct: expressed in transfected cells
Description: The following method is illustrative of techniques that may be employed to measure the ability of the compounds of Formula (I) to functionally modulate the binding of AgRP to melanocortin receptors. In particular, the assay below measures the ability of compounds of Formula (I) or pharmaceutically acceptable salts thereof to functionally modulate the binding of AgRP to MC-4R in the presence of a MC-4R agonist, such as alpha-MSH.
HEK293 cells stably expressing human MC-4R receptors were grown in high glucose Dulbecco's Modified Eagle Medium (DMEM) with 4500 mg glucose/L, L-glutamine, NaHCO3, pyrdoxin HCl, 10 mM HEPES (pH 7.4), 0.1 mM NEAA (non-essential amino acid medium) (GIBCO Cat#11140-050), 10% fetal bovine serum and 700 μg/mL G418. Cells were grown in T-225 flasks at 37° C. with CO2 and humidity control.
On the day of assay, cells were washed twice with phosphate buffered saline without calcium and magnesium (PBS) and incubated with 10 mL PBS until the cells were detached from the flask. The detached cells were centrifuged at 240 g for 5 min. The cell pellet was re-suspended in assay buffer (Earle's balanced salt solution (Sigma E3024) supplemented with 10 mM HEPES, pH 7.4, 0.5 mM IBMX and protease inhibitor cocktail (Roche, 1 complete tablet/75 mL buffer)).
The inhibitory or enhancement effect of compounds on AgRP activity was measured in a multi-component assay containing testing compounds, AgRP83-132 (human, Phoenix Pharma, cat no. 003-53), cells expressing MC-4R, and αMSH (Bachem, cat no. H-1075). Test compounds, AgRP and αMSH were diluted with assay buffer. Test compounds and AgRP were mixed to 4 times of the final concentration and incubated at room temperature for 30 min. Five μL of testing compound/AgRP solution followed with 10 μL of cells (20,000 cells/well) were added to each well of a 384-well reaction plate before 5 μL of αMSH was added. Cells were stimulated with αMSH for an additional 30 min at 37° C.
Stimulation of cells was stopped by adding a lysis buffer and cells were lysed. The intracellular concentration of cAMP may be measured by various techniques known to one of skill in the art including, but not limited to, fluorescence polarization (FP) and time-resolved fluorescence (TRF).
The inhibition was shown by an increase in MC-4R mediated cAMP production.

[1] = Pharmacokinetic screening in rats (plasma and brain); conditions: rat, 5 mg/kg PO; for concentration at 2 h: male, Sprague Dawley, po, 5 mg/kg, 2 hour time point; for Brain - 24 hours AUC (h * ng/g): 24 hour study
[2] = plasma, Plasma - 2 hours (ng/mL)

T1 sequence (P32245 whole entry): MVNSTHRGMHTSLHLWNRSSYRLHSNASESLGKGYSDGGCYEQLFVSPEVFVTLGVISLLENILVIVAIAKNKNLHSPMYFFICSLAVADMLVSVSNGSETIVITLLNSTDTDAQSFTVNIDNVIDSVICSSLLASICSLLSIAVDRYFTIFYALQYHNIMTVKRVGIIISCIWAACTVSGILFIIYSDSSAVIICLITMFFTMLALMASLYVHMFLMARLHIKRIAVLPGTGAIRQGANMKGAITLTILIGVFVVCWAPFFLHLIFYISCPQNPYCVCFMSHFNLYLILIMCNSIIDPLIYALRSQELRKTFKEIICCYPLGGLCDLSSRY

SMILES | EC50 (human MC-4R) [nM] | concentration at 2 h ([1]; brain, Brain - 2 hours (ng/g)) [ng/g] | concentration at 2 h [1, 2] [ng/mL] | Brain - 24 hours AUC (h * ng/g) [1]
CCc1ccc(CN(CCC(=O)O)c2nc(CC3CCCCC3)cs2)s1 [Example 3, 3-[(4-Cyclohexylmethyl-thiazol-2-yl)-(5-ethyl-thiophen-2-ylmethyl)-amino]-propionic acid] | 246 | 691 | 2650 | 
Cc1ccc(CN(CCC(=O)[O-])c2nc(C3(c4ccccc4)CCCCC3)cs2)s1.[Na+] [Example 6, Sodium; 3-{(5-methyl-thiophen-2-ylmethyl)-[4-(1-phenyl-cyclohexyl)-thiazol-2-yl]-amino}-propionate] | 250 | 248 | 445 | + (values less than 5,000 h*ng/g)
Cc1ccc(CN(CCC(=O)O)c2nc(C3(CC(C)C)CCCC3)cs2)s1 [Example 42, 3-[[4-(1-Isobutyl-cyclopentyl)-thiazol-2-yl]-(5-methyl-thiophen-2-ylmethyl)-amino]-propionic acid] | 116 | 42 | 50 | 
CCc1ccc(CN(CCC(=O)[O-])c2nc(C3(C)CCC(C)CC3)cs2)s1.[Na+] (centres unmarked) [Example 47, Sodium; 3-[[4-(1,4-dimethyl-cyclohexyl)-thiazol-2-yl]-(5-ethyl-thiophen-2-ylmethyl)-amino]-propionate] | 58 | 886 | 2090 | + (values less than 5,000 h*ng/g)
Cc1ccc(CN(CCC(=O)O)c2nc(C3(C)CCC(C(C)C)CC3)cs2)s1 (centres unmarked) [Example 48, Sodium; 3-[[4-(4-isopropyl-1-methyl-cyclohexyl)-thiazol-2-yl]-(5-methyl-thiophen-2-ylmethyl)-amino]-propionate] | 73 | 251 | 486 | 
Cc1ccc(CN(CCC(=O)O)c2nc(C3(C)CCC(C(C)(C)C)CC3)cs2)s1 (centres unmarked) [Example 50, 3-[[4-(4-tert-Butyl-1-methyl-cyclohexyl)-thiazol-2-yl]-(5-methyl-thiophen-2-ylmethyl)-amino]-propionic acid] | 154 |  |  | 
Cc1ccc(CN(CCC(=O)O)c2nc(C3(C)CCC(c4ccccc4)CC3)cs2)s1 (centres unmarked) [Example 51, 3-[[4-(1-Methyl-4-phenyl-cyclohexyl)-thiazol-2-yl]-(5-methyl-thiophen-2-ylmethyl)-amino]-propionic acid] | 143 |  |  | 
Cc1ccc(CN(CCC(=O)O)c2nc(C3(C)CCC(C)(C)CC3)cs2)s1 [Example 52, 3-[[4-(1,4,4-trimethyl-cyclohexyl)-thiazol-2-yl]-(5-methyl-thiophen-2-ylmethyl)-amino]-propionic acid] | 267 |  |  | 
Cc1ccc(CN(CCC(=O)O)c2nc(C3CC(C)(C)CC(C)(C)C3)cs2)s1 [Example 53, 3-{(5-methyl-thiophen-2-ylmethyl)-[4-(3,3,5,5-tetramethyl-cyclohexyl)-thiazol-2-yl]-amino}-propionic acid] | 307 |  |  | 
Cc1ccc(CN(CCC(=O)O)c2nc(C3CC4CCCCC4C3)cs2)s1 (centres unmarked) [Example 57, 3-{(5-Methyl-thiophen-2-ylmethyl)-[4-(octahydro-inden-2-yl)-thiazol-2-yl]-amino}-propionic acid] | 187 |  |  | 
Cc1cc(CN(CCC(=O)O)c2nc(C3CC4CCCCC4C3)cs2)c(C)s1 (centres unmarked) [Example 59, 3-{(2,5-Dimethyl-thiophen-3-ylmethyl)-[4-(octahydro-inden-2-yl)-thiazol-2-yl]-amino}-propionic acid] | 160 |  |  | 
Cc1ccc(CN(CCC(=O)O)c2nc(C3CCC4(CCCC4)CC3)cs2)s1 [Example 62, 3-[(5-methyl-thiophen-2-ylmethyl)-(4-spiro[4.5]dec-8-yl-thiazol-2-yl)-amino]-propionic acid] | 321 |  |  | 
Cc1ccc(CN(CCC(=O)O)c2nc(C3CCC4(CCCCC4)CC3)cs2)s1 [Example 63, 3-[(5-methyl-thiophen-2-ylmethyl)-(4-spiro[5.5]undec-3-yl-thiazol-2-yl)-amino]-propionic acid] | 283 |  |  | 

Next, values leading:

EC50 (human MC-4R) [nM] | concentration at 2 h ([1]; brain, Brain - 2 hours (ng/g)) [ng/g] | concentration at 2 h [1, 2] [ng/mL] | Brain - 24 hours AUC (h * ng/g) [1] | SMILES
135 | 80 | 261 |  | CCc1ccc(CN(CCC(=O)O)c2nc(C3CCCCC3)cs2)s1 [Example 2, 3-[(4-cyclohexyl-thiazol-2-yl)-(5-ethyl-thiophen-2-ylmethyl)-amino]-propionic acid]
324 | 98 | 590 |  | CCc1ccc(CN(CCC(=O)O)c2nc(CC3CCCC3)cs2)s1 [Example 4, 3-[(4-Cyclopentylmethyl-thiazol-2-yl)-(5-ethyl-thiophen-2-ylmethyl)-amino]-propionic acid]
102 |  |  |  | CCc1ccc(CN(CCC(=O)O)c2nc(C3(C)CCC(C(C)C)CC3)cs2)s1 (centres unmarked) [Example 49, Sodium; 3-{(5-ethyl-thiophen-2-ylmethyl)-[4-(4-isopropyl-1-methyl-cyclohexyl)-thiazol-2-yl]-amino}-propionate]
36 | 2980 | 7710 | ++++ (values above 20,000 h*ng/g) | CCc1ccc(CN(CCC(=O)O)c2nc(C3CCC(C)(C)CC3)cs2)s1 [Example 54, 3-[[4-(4,4-Dimethyl-cyclohexyl)-thiazol-2-yl]-(5-ethyl-thiophen-2-ylmethyl)-amino]-propionic acid]
217 |  |  |  | Cc1ccc(CN(CCC(=O)O)c2nc(C3CCC(C)(C)CC3)c(C)s2)s1 [Example 56, Sodium; 3-[[4-(4,4-dimethyl-cyclohexyl)-5-methyl-thiazol-2-yl]-(5-methyl-thiophen-2-ylmethyl)-amino]-propionate]
94 | 720 | 1330 |  | CCc1ccc(CN(CCC(=O)O)c2nc(C3CC4CCCCC4C3)cs2)s1 (centres unmarked) [Example 58, 3-{(5-Ethyl-thiophen-2-ylmethyl)-[4-(octahydro-inden-2-yl)-thiazol-2-yl]-amino}-propionic acid]
90 |  |  |  | Cc1ccc(CN(CCC(=O)O)c2nc(CC3CCC(C)(C)CC3)cs2)s1 [Example 64, 3-[[4-(4,4-dimethyl-cyclohexylmethyl)-thiazol-2-yl]-(5-methyl-thiophen-2-ylmethyl)-amino]-propionic acid]
